Experimental data from PubChem BioAssay AID248 (DTP/NCI, 2004).
Inconclusive results and toxic doses are left out. Cut-off read from the data, not from the text of the source: active = T/C of 150% or more; inactive = T/C below 125%.

Tested on: L1210 leukemia ip in BDF1 mice, survival T/C
Test: NCI In Vivo Anticancer Drug Screen. Data for tumor model L1210 Leukemia (intraperitoneal) in B6D2F1 (BDF1) mice
Conditions: endpoint: mean survival time, higher = longer survival
In short: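 Tumor was transplanted into mice, which were then dosed with test compound or vehicle alone. Survival was recorded for each group, and the treated figure was expressed relative to the control figure.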

[1] = dose: 100.0 mg/kg/injection, schedule: Q04DX003 (ip), vehicle: saline with Tween-80
[2] = dose: 200.0 mg/kg/injection, schedule: Q04DX003 (ip), vehicle: saline with Tween-80
[3] = dose: 400.0 mg/kg/injection, schedule: Q04DX003 (ip), vehicle: saline with Tween-80
[4] = dose: 100.0 mg/kg/injection, schedule: Q01DX001 (ip), vehicle: saline
[5] = dose: 200.0 mg/kg/injection, schedule: Q01DX001 (ip), vehicle: saline
[6] = dose: 400.0 mg/kg/injection, schedule: Q01DX001 (ip), vehicle: saline
[7] = dose: 100.0 mg/kg/injection, schedule: Q01DX009 (ip), vehicle: Klucel (hydroxypropylcellulose) (HPC)
[8] = dose: 200.0 mg/kg/injection, schedule: Q01DX009 (ip), vehicle: Klucel (hydroxypropylcellulose) (HPC)
[9] = dose: 400.0 mg/kg/injection, schedule: Q01DX009 (ip), vehicle: Klucel (hydroxypropylcellulose) (HPC)

Measured: T/C

CNC(C)C1CCC2C3CC=C4CC(O)CCC4(C)C3CCC12C (stereo not given)
inactive: dose: 100.0 mg/kg/injection, schedule: Q01DX001 (sc), vehicle: steriod suspending solution 104 % of control | dose: 200.0 mg/kg/injection, schedule: Q01DX001 (sc), vehicle: steriod suspending solution 87 % of control | dose: 400.0 mg/kg/injection, schedule: Q01DX001 (sc), vehicle: steriod suspending solution 94 % of control

CCCCCCNC(=O)Oc1cccc(NC(=O)CC)c1
inactive: [1] 104 % of control | [2] 88 % of control | [3] 102 % of control

CCOC(=O)C1CCNC(=O)C1=O (stereo not given)
inactive: dose: 50.0 mg/kg/injection, schedule: Q01DX001 (ip), vehicle: saline 104 % of control | [4] 101 % of control | [5] 97 % of control

O=C(Nc1nccs1)c1ccccc1F
inactive: dose: 100.0 mg/kg/injection, schedule: Q04DX002 (ip), vehicle: Klucel (hydroxypropylcellulose) (HPC) 87 % of control | dose: 200.0 mg/kg/injection, schedule: Q04DX002 (ip), vehicle: Klucel (hydroxypropylcellulose) (HPC) 97 % of control | dose: 400.0 mg/kg/injection, schedule: Q04DX002 (ip), vehicle: Klucel (hydroxypropylcellulose) (HPC) 102 % of control

Clc1nc2ccccc2s1.Clc1nc2ccccc2s1.Clc1nc2ccccc2s1.Clc1nc2ccccc2s1.[Cl][Rh][Cl]
inactive: dose: 3.13 mg/kg/injection, schedule: Q04DX003 (ip), vehicle: distilled water + Tween-80 94 % of control | dose: 6.25 mg/kg/injection, schedule: Q04DX003 (ip), vehicle: distilled water + Tween-80 96 % of control | dose: 12.5 mg/kg/injection, schedule: Q04DX003 (ip), vehicle: distilled water + Tween-80 96 % of control | dose: 25.0 mg/kg/injection, schedule: Q04DX003 (ip), vehicle: distilled water + Tween-80 102 % of control | dose: 50.0 mg/kg/injection, schedule: Q04DX003 (ip), vehicle: distilled water + Tween-80 103 % of control | dose: 100.0 mg/kg/injection, schedule: Q04DX003 (ip), vehicle: distilled water + Tween-80 102 % of control | dose: 200.0 mg/kg/injection, schedule: Q04DX003 (ip), vehicle: distilled water + Tween-80 103 % of control

CC(C)NCCOC(=O)c1ccc(N)cc1
inactive: dose: 75.0 mg/kg/injection, schedule: Q01DX001 (ip), vehicle: saline 102 % of control | dose: 150.0 mg/kg/injection, schedule: Q01DX001 (ip), vehicle: saline 105 % of control

Cc1ccc2c[n+]3cc4ccccc4cc3cc2c1
inactive: dose: 1.56 mg/kg/injection, schedule: Q04DX003 (ip), vehicle: saline 93 % of control | dose: 3.12 mg/kg/injection, schedule: Q01DX009 (ip), vehicle: saline 107 % of control | dose: 3.12 mg/kg/injection, schedule: Q04DX003 (ip), vehicle: saline 114 % of control | dose: 6.25 mg/kg/injection, schedule: Q01DX009 (ip), vehicle: saline 105 % of control | dose: 6.25 mg/kg/injection, schedule: Q04DX003 (ip), vehicle: saline 103 % of control | dose: 12.5 mg/kg/injection, schedule: Q04DX003 (ip), vehicle: saline 107 % of control

Cc1nc[nH]c(=O)c1CCC1OCCO1
inactive: dose: 100.0 mg/kg/injection, schedule: Q04DX003 (ip), vehicle: saline 93 % of control | dose: 200.0 mg/kg/injection, schedule: Q04DX003 (ip), vehicle: saline 98 % of control | dose: 400.0 mg/kg/injection, schedule: Q04DX003 (ip), vehicle: saline 98 % of control

CC(C)=C(CSC#N)S(=O)(=O)c1ccc(C)cc1
inactive: dose: 3.12 mg/kg/injection, schedule: Q01DX009 (ip), vehicle: Klucel (hydroxypropylcellulose) (HPC) 103 % of control | dose: 6.25 mg/kg/injection, schedule: Q01DX009 (ip), vehicle: Klucel (hydroxypropylcellulose) (HPC) 101 % of control | dose: 12.5 mg/kg/injection, schedule: Q01DX009 (ip), vehicle: Klucel (hydroxypropylcellulose) (HPC) 97 % of control

CCCCCCCCOC(CN)C(Cl)(Cl)Cl (stereo not given)
inactive: dose: 6.25 mg/kg/injection, schedule: Q01DX009 (ip), vehicle: saline with Tween-80 103 % of control | dose: 6.25 mg/kg/injection, schedule: Q04DX003 (ip), vehicle: saline with Tween-80 91 % of control | dose: 12.5 mg/kg/injection, schedule: Q01DX009 (ip), vehicle: saline with Tween-80 100 % of control | dose: 12.5 mg/kg/injection, schedule: Q04DX003 (ip), vehicle: saline with Tween-80 94 % of control | dose: 25.0 mg/kg/injection, schedule: Q01DX009 (ip), vehicle: saline with Tween-80 100 % of control | dose: 25.0 mg/kg/injection, schedule: Q04DX003 (ip), vehicle: saline with Tween-80 94 % of control

CC(=O)OC(C)c1ccc(Cl)cc1 (stereo not given)
inactive: dose: 100.0 mg/kg/injection, schedule: Q04DX002 (ip), vehicle: saline with Tween-80 101 % of control | dose: 200.0 mg/kg/injection, schedule: Q04DX002 (ip), vehicle: saline with Tween-80 97 % of control | dose: 400.0 mg/kg/injection, schedule: Q04DX002 (ip), vehicle: saline with Tween-80 93 % of control

C[Si](C)(C)CCc1ccccc1
inactive: [1] 98 % of control | [2] 95 % of control | [3] 93 % of control

CC1(O)CCCCC1
inactive: [4] 102 % of control | [5] 104 % of control | [6] 96 % of control

COc1ccc(-n2c(=O)c(N=Nc3ccc(Br)cc3)c(O)n(-c3ccc(Cl)cc3)c2=S)cc1
inactive: dose: 37.5 mg/kg/injection, schedule: Q01DX001 (ip), vehicle: Klucel (hydroxypropylcellulose) (HPC) 102 % of control | dose: 75.0 mg/kg/injection, schedule: Q01DX001 (ip), vehicle: Klucel (hydroxypropylcellulose) (HPC) 101 % of control | dose: 150.0 mg/kg/injection, schedule: Q01DX001 (ip), vehicle: Klucel (hydroxypropylcellulose) (HPC) 104 % of control

CCCCSc1n[nH]c(=O)nc1N
inactive: [4] 93 % of control | [5] 96 % of control | [6] 98 % of control

CCOC(=O)c1ccc(NC(=O)Oc2cc(=O)oc3ccccc23)cc1
inactive: [7] 97 % of control | [8] 95 % of control | [9] 96 % of control

NC(=O)c1[nH]cnc1/N=N/N1CCCC1
inactive: dose: 125.0 mg/kg/injection, schedule: Q01DX Z (ip), vehicle: carboxymethylcellulose (CMC) 103 % of control | dose: 375.0 mg/kg/injection, schedule: Q01DX Z (ip), vehicle: carboxymethylcellulose (CMC) 105 % of control

Cc1n(Cc2ccccc2)c2c([n+]1C)C(=O)c1ccccc1C2=O
inactive: dose: 0.5 mg/kg/injection, schedule: Q01DX001 (ip), vehicle: saline 102 % of control | dose: 1.0 mg/kg/injection, schedule: Q01DX001 (ip), vehicle: saline 102 % of control | dose: 1.0 mg/kg/injection, schedule: Q04DX003 (ip), vehicle: Klucel (hydroxypropylcellulose) (HPC) 100 % of control | dose: 2.0 mg/kg/injection, schedule: Q01DX001 (ip), vehicle: saline 106 % of control | dose: 2.0 mg/kg/injection, schedule: Q04DX003 (ip), vehicle: Klucel (hydroxypropylcellulose) (HPC) 91 % of control | dose: 4.0 mg/kg/injection, schedule: Q01DX001 (ip), vehicle: saline 108 % of control | dose: 4.0 mg/kg/injection, schedule: Q04DX003 (ip), vehicle: Klucel (hydroxypropylcellulose) (HPC) 96 % of control | dose: 125.0 micrograms/kg/injection, schedule: Q01DX009 (ip), vehicle: Klucel (hydroxypropylcellulose) (HPC) 97 % of control | dose: 250.0 micrograms/kg/injection, schedule: Q01DX009 (ip), vehicle: Klucel (hydroxypropylcellulose) (HPC) 97 % of control | dose: 500.0 micrograms/kg/injection, schedule: Q01DX009 (ip), vehicle: Klucel (hydroxypropylcellulose) (HPC) 90 % of control | dose: 1000.0 micrograms/kg/injection, schedule: Q01DX009 (ip), vehicle: Klucel (hydroxypropylcellulose) (HPC) 101 % of control | dose: 2000.0 micrograms/kg/injection, schedule: Q01DX009 (ip), vehicle: Klucel (hydroxypropylcellulose) (HPC) 95 % of control

O=C(O)C(F)(F)F.[Cu+2]
inactive: dose: 12.5 mg/kg/injection, schedule: Q04DX002 (ip), vehicle: saline 98 % of control | dose: 25.0 mg/kg/injection, schedule: Q04DX002 (ip), vehicle: saline 95 % of control

O=Cc1ccc(N2CCOCC2)cc1
inactive: dose: 50.0 mg/kg/injection, schedule: Q01DX009 (ip), vehicle: Klucel (hydroxypropylcellulose) (HPC) 97 % of control | [7] 97 % of control | [8] 106 % of control | [9] 97 % of control

CC(=O)Nc1nc(/C=N/NC(N)=S)cc(=O)[nH]1
inactive: dose: 75.0 mg/kg/injection, schedule: Q01DX001 (ip), vehicle: other 100 % of control | dose: 150.0 mg/kg/injection, schedule: Q01DX001 (ip), vehicle: other 96 % of control | dose: 300.0 mg/kg/injection, schedule: Q01DX001 (ip), vehicle: other 105 % of control
